Ends that are not written are not given here.
Columns and labels:
Aβ42 [1] = target: T1, Aβ42 (Homo sapiens, UniProt P05067); conditions: equivalent molar concentration, after 8 h of incubation, Thioflavin T-binding assay; cited from earlier work
T1 construct: the plate was incubated with various concentrations of Aβ1–28, Aβ40, or Aβ42 (Peptide Institute); purchased Peptide Institute

[2] = test system: 7WD10 Chinse Hamster Ovary (CHO) cells stably expressing human APP; test: Aβ production in 7WD10 cells, western blot of culture medium and cell lysates; assay type: cell-based, Chinese Hamster; conditions: 48 h, tetravalent peptides 50 µM, LME-mono 100 and 200 µM, n = 3
Experimental: 7WD10 Chinse Hamster Ovary (CHO) cells were treated with each tetravalent peptide (50 µM) for 48 h; cell lysates (for intracellular C99 and Aβ) and culture medium (for extracellular Aβ) from peptide-treated and vehicle control-treated cells were analyzed by western blot. Data are graphed as the percentage of the control value, showing the mean ± SE; n = 3. Significance vs. vehicle was calculated by analysis of variance (ANOVA), followed by one-sided Dunnett’s test; *P < 0.05, **P < 0.01. c Effect of increasing concentrations of LME-tet on Aβ production (left panel). 7WD10 cells were treated with vehicle control or LME-tet at the indicated concentrations for 48 h, and the culture medium was analyzed by western blot. Data are graphed as the percentage of the control value, showing the mean ± SE; n = 3. Significance vs. vehicle was calculated by ANOVA, followed by one-sided Dunnett’s test; *P < 0.05, **P < 0.01. Effect of LME-mono on Aβ production (right panels). 7WD10 cells were treated with vehicle control or LME-mono at the indicated concentrations for 48 h; cell lysates (for intracellular C99 and Aβ) and culture medium (for extracellular Aβ) were analyzed by western blot. […] Significance vs. vehicle was calculated by ANOVA, followed by one-sided Dunnett’s test; *P < 0.05. d Binding of LME-tet and LME-mono to Aβ1-28, Aβ40 and Aβ42 was measured by enzyme-linked immunosorbent assay (ELISA). […]

Aβ1–28 = test: ELISA binding between Aβ and LME peptides; conditions: LME-tet (8.3 µM) or LME-mono (33 µM) applied on plate, Aβ 2 h at room temperature, n = 3
Experimental: (§1) The indicated amounts of LME-tet (8.3 µM) or LME-mono (33 µM) were applied onto each well of a regular 96-well ELISA plate (Thermo Fisher Scientific) and incubated overnight for 24 h. After blocking, the plate was incubated with various concentrations of Aβ1–28, Aβ40, or Aβ42 (Peptide Institute) for 2 h at room temperature. Bound Aβ was detected using mouse monoclonal anti-human Aβ antibody 82E1 (Immuno-Biological Laboratories Co., Ltd.) and HRP-conjugated horse anti-mouse IgG antibody (Cell Signaling Technology).

Aβ40 = target: T2, Aβ40 (Homo sapiens, UniProt P05067); test: ELISA binding between Aβ and LME peptides; conditions: LME-mono (33 µM) applied on plate, n = 4
T2 construct: purchased Peptide Institute
T2 sequence (P05067 672-711 limits assumed): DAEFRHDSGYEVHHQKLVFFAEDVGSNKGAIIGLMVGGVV
Experimental: as §1

Aβ42 [3] = target: T1, Aβ42; test: ELISA binding between Aβ and LME peptides; conditions: LME-mono (33 µM) applied on plate, n = 3
Experimental: as §1

7WD10 cells = test: Lysosomal protease inhibitor treatment of 7WD10 cells, western blot; assay type: cell-based, Chinese Hamster; conditions: LME-tet (25 µM) or LME-mono (100 µM), lysosomal PI cocktail (E-64, leupeptin), 48 h
Aβ42 [4] = target: T1, Aβ42; test: Circular dichroism spectroscopy of Aβ42 conformational change; conditions: Aβ42 20 µM, peptide 2 µM, 50 mM sodium phosphate buffer pH 7.4, 37 °C, far-UV CD, molar ellipticity at 217 nm
Experimental: Fig. 5 LME-tet inhibits the conformational change and subsequent fibrillation of Aβ42. a Binding of LME-tet to extracellular Aβ. Culture medium from 7WD10 cells recovered after 48 h of growth was treated with biotinylated LME-tet (50 µM) or LME-mono (200 µM). Medium was then incubated with streptavidin beads, and coprecipitating Aβ40 and Aβ42 were analyzed by western blot using anti-Aβ or anti-Aβ42-specific antibody. b Time-dependent conformational change in Aβ42 (20 µM) in the presence of LME-tet (2 µM, lower left panel) or LME-mono (2 µM, upper right panel). Far-UV circular dichroism (CD) spectra (wavelength 190–250 nm) were measured at the indicated time points. […] Data represent the mean ± SE; n = 3–4. c Fibrillation profiles of Aβ42 in the presence of LME-tet (2 µM) or LME-mono (2 µM), measured by Thioflavin T-binding assay. […] Data represent the mean ± SE; n = 3. d Fibrillation profiles of Aβ42 in the presence of LME-tet (2 µM) or LME-mono (2 µM), analyzed by electron microscopy; representative images at ×10 K, ×50 K, and ×200 K magnification (left, right, and center, respectively) are shown. Scale bars indicate 2 µm, 400 nm, and 100 nm, respectively. e Effects of LME-tet (2 µM) on growth of Aβ42 fibril in the presence of 2% (v/v) Aβ42 fibril-seed, measured by the Thioflavin T-binding assay. […]

T1 sequence (P05067 672-713 limits assumed): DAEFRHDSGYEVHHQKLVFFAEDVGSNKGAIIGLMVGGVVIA

Substance | inhibition of fibrillation of Aβ42 (Aβ42 [1]) | inhibitory effect on production of Aβ [2] | binding to Aβ1–28 (Aβ1–28) | binding to Aβ40 (Aβ40) | binding to Aβ42 (Aβ42 [3]) | PI-dependent increase of intracellular APP, C99, Aβ, p62 and LC3-II (7WD10 cells) | conformational change of Aβ42 (β-sheet formation) (Aβ42 [4])
Ac-KL-NVF-NFA-NH2 | 40% |  |  |  |  |  | 
PKLRMKE [LME-mono, monomeric peptide with the same motif, Pro-Lys-Leu-Arg-Met-Lys-Glu] |  | has no effect | unable to bind | unable to bind | unable to bind | does not affect | no effect was observed

From publication PMC10082830, “A tailored tetravalent peptide displays dual functions to inhibit amyloid β production and aggregation” (Communications Biology, 2023)
